Measured values reported in US20130296346A1, “DIPHENYL-AMINE DERIVATIVES: USES, PROCESS OF SYNTHESIS AND PHARMACEUTICAL COMPOSITIONS” (Faes Farma, S.A., priority 2010, published 2013).

What was measured:
IL4r = experiment: IL-4R transfectant, STAT6 reporter gene (secreted phosphatase); assay type: cell-based
Excerpt: (§1) The secreted phosphatase sPase was used as reporter for its ability to process the luminiscent or colorimetric substrates from the culture based in the hydrolysis of substrates chemically similar to nitrophenol phosphate. Five generation of transfectants were developed as described: • 1. IL-4R. Chains of Type II IL-4-r, which is the common one within non-haematopoietic cells were transfected, as well as STAT6 which the key molecule in the nuclear signalling route by IL-4-r, and finally a reporter gene to measure the response to STAT6 was introduced. Endogenously, cells had Janus Associated Kinase 1 (JAK1) which was previously known to be associated with STAT6 via p62/aPKC. • 2. IL-6R. Chains of IL-6R were transfected and a reporter gene able to measure the response to STAT3 was introduced. As it is well known, STAT3 is a transductional molecule and a nuclear factor physiologically produced in the standard responses IL-6/IL-6R. • 3. TNF-R. In this case, a reporter gene able to measure the response to NF-kB was introduced, as this is the transductional molecule and the nuclear factor physiologically produced in response to TNF-alpha. […] LPS-Receptor complex represented by TLR4/MD2/CD14. Reporter genes with elements of response to NFkB were used as in the previous case, but the selectivity was achieved by the co-transfection of components of the LPS-R complex. The LPS is captured from the serum through the union to one plasma protein known as LBP, which transfers the LPS to the membrane protein CD14. The LBP inclusion accounts for an increase of 1000-fold the sensitivity versus media or cultures LBP-frees. The molecule CD14 is not an LPS-receptor but a module of the receptor complex which captures LBP, allowing the transference of LPS in the cellular surface to MD2. CD14 has not a cytoplasmic tail and it is not able to be a signal transducer but it substantially increases the sensitivity of the system. In a similar way, MD2 is not a signal transducer but the combination of CD14 and MD2 allows the increase of the sensitivity by 10000-fold. • 5. IL-1R. Reporter genes with elements of response to NFkB were used as in the previous case, but the selectivity was achieved by the expression of components belonging to the receptor complex IL-1R. IL-1R belongs to a receptors superfamily which uses TIR transduction domains (Toll-like IL-1R). It is known that the IL-1R route activates mitogen-activated protein kinases (MAPK) of JNK type which in turn generate nuclear factors transcriptionally active as AP-1. The reporter gene includes NFkB and AP-1 sites chained in order to simulate the physiological situation.

[1] = test system: haematological cancer cell lines; experiment: Apoptosis induction in haematological cancer cell lines; assay type: cell-based
SW260 = experiment: In vitro cytotoxicity, SRB method; assay type: cell-based; settings: SW260 colon cancer, 72 hours
Description: (§2) SRB method was followed (Wieland, V., et al. Sulforhodamine B Assay and Chemosensitivity. Chemosensitivity, volume 1, In Vitro Assays. Methods in Molecular Medicine. Edited by Rosalyn D. Blumenthal. Humana Press, Totowa, N.J., 2005).
(§3) Cells were seeded in microplates of 96 wells. In each well, according to the cell type, specific number of cells were seeded in 200 microliters. In these conditions, cells were cultured for 3 days, with the aim of reaching their exponential phase of growing to assay the product cytotoxicity. The product concentrations were prepared just the day of treatments, after thawing the stock solutions (10 mM). After harvesting the microplate with the seeded cells for 3 days, the culture medium was discarded and replaced by 150 μl of fresh medium in each well. This was followed by the addition of 50 μl of the corresponding product dilution so as the final concentration in the final volume of 200 microliters in each well was the one scheduled. The products, at the assayed concentrations, were in contact with the cell growing monolayer for 72 hours and incubated at 37° C., 5% CO2. Finally, cells were growth arrested adding […] of cold TCA (Trichloroacetic acid) 50%, (final concentration of 10% in the well). Microplate was then maintained at 4° C. for over 60 min to fix cellular proteins till initiation of washing and staining with SRB.
(§4) Cell viability (%)=(Cell population of the treated well/Maximum cell population of the Standard curve)×100.
(§5) Mean viability values for each concentration were calculated from the values obtained for each well in which that concentration was assayed.

B16-F1 = experiment: In vitro cytotoxicity, SRB method; assay type: cell-based; settings: Mus musculus, B16-F1 melanoma, 72 hours
Description: as §2, §3, §4, §5

HCT116 = experiment: In vitro cytotoxicity, SRB method; assay type: cell-based; settings: Homo sapiens, HCT-116, HCT116 colon cancer, 72 hours
Description: as §2, §3, §4, §5

Malm-3M = experiment: In vitro cytotoxicity, SRB method; assay type: cell-based; settings: Malm-3M melanoma, 72 hours
Description: as §2, §3, §4, §5

SF268 = experiment: In vitro cytotoxicity, SRB method; assay type: cell-based; settings: Homo sapiens, SF-268, SF268 glioblastoma, 72 hours
Description: as §2, §3, §4, §5

NCI-H460 = experiment: In vitro cytotoxicity, SRB method; assay type: cell-based; settings: Homo sapiens, NCI-H460 lung, 72 hours
Description: as §2, §3, §4, §5

HepG2 = experiment: In vitro cytotoxicity, SRB method; assay type: cell-based; settings: Homo sapiens, HepG2 hepatoma, 72 hours
Description: as §2, §3, §4, §5

TNFr = experiment: TNF-R transfectant, NF-kB reporter gene (secreted phosphatase); assay type: cell-based
Excerpt: as §1

[2] = Cytotoxicity for human non-tumoral cells, XTT; assay type: cell-based; settings: Fibroblasts
Description: (§6) The cytotoxicity of the compounds for human non-tumoral cells was studied in fibroblasts, HUVEC cells and resting PBLs (Peripheral Blood lymphocytes).
(§7) Distinct amounts of exponentially growing cells were seeded in 96-well flat-bottomed microtiter plates in a final volume of 100 μl were seeded in 96-well flat-bottomed microtiter plates, and incubated at 37° C. in a humidified atmosphere of 5% CO2/95% air for 24 h to allow the cells attach to the plates. Then, cells were incubated with different concentrations of the assayed compound at 37° C. under the 5% CO2/95% air atmosphere for 72 h. Cell proliferation was quantified using the XTT cell proliferation kit (Roche Molecular Biochemicals, Mannheim, Germany) following the manufacturer's instructions. Briefly, a freshly prepared mixture solution (50 μl) of XTT labelling reagent and PMS (N-methyldibenzopyrazine methyl sulfate) electron coupling reagent was added to each well. The resulting mixtures were further incubated for 4 h in a humidified atmosphere (37° C., 5% CO2), and the absorbance of the formazan product generated was measured with a microtiter plate reader at a test wavelength of 490 nm and a reference wavelength of 655 nm. The IC50 (50% inhibitory concentration) was then calculated as the drug concentration causing a 50% inhibition of cell proliferation. Data are shown as mean values of four independent experiments each performed in triplicate.

IL6r = experiment: IL-6R transfectant, STAT3 reporter gene (secreted phosphatase); assay type: cell-based
Excerpt: as §1

resting human PBLs = experiment: Apoptosis of resting human PBLs; assay type: cell-based
Description: To isolate normal peripheral blood lymphocytes (PBLs), mononuclear cells were obtained from fresh human peripheral blood from healthy volunteers by centrifugation on Ficoll-Hypaque density gradients, washed with phosphate-buffered saline (PBS), and resuspended in RPMI-1640 medium containing 10% (v/v) heat-inactivated FBS, 2 mM L-glutamine, 100 U/ml penicillin, and 100 μg/ml streptomycin as described (Cabaner et al. Br. J. Pharmacol 127:813-825.1999). Monocytes were depleted by culture dish adherence after overnight incubation. Nonadherent cells (lymphocytes) were washed with PBS and collected. PBL preparations were typically 70-75% CD3^+, 24-29% CD 19^+, and less than 0.4% CD 14^+.

[3] = Cytotoxicity for human non-tumoral cells, XTT; assay type: cell-based; settings: HUVEC cells (primary, from human cords)
Description: as §6
HUVEC cells were obtained by treating human cords with collagenase type I, […] in Hank's medium incubating 20 minutes at 37° C. Cells were collected afterwards and cultivated in medium M199 with supplements of 20% FBS, 1% P/S and 25 mg/500 ml of medium ECGF, Cells were grown on a 0.2% gelatin matrix.
as §7

TNF-α = experiment: Murine endotoxemia (LPS i.p.), blood serum TNF-α; assay type: in vivo, mice; settings: orally 100 mg/kg; 90 min after LPS 1 mg/kg i.p.
Description: MATERIAL AND METHODS: Male CD1 mice, weighing between 30 and 35 g and housed under controlled standard conditions, were used. These animal fasted (for 14-16 hours; 12 per group; 6 per cage≅500 cm^2), with a nutritional solution made of Saccharose (8%) and NaCl (0.2%), ad libitum. Oral test treatments were given in suspensions (vehicle: Tween 80 0.1%—NaCl 0.9%), in a 10 ml/kg volume ratio. One hour later, murine endotoxemia was induced by intraperitoneal injection of Lipopolysaccharides from Escherichia coli serotype 055:B5 (Sigma L-2880), at 1 mg/kg dose and in a 10 ml/kg volume ratio, dissolved in sterile saline. Ninety minutes after LPS injection (i.p.), under Isoflurane anaesthesia, 0.5-0.8 ml of blood was extracted by cardiac punction; the blood sample was centrifuged (6000 rpm; 10 minutes; 4° C.) and 2 serum samples were taken and kept frozen at −70° C. until serum TNF-α concentrations were measured (EIA: Mouse TNF/TNF SF1A Quantikine from R&D Systems).

IL6 = experiment: Blood serum IL6 in mice treated with parathyroid hormone; assay type: in vivo; settings: orally 25 mg/kg; pTH-rp treated mice
Description: MATERIAL AND METHODS: Male CD1 mice, between 5 and 7 week and housed under controlled standard conditions, were used. These animal fasted (for 14-16 hours; 12 per group; 6 per cage≅1100 cm^2), with solid and liquid food ad libitum. During 5 days, the animals were treated with 8 i.p. administration of pTH-rp (1-34, human) 15 microgram/0.1 ml/injection
Oral test treatments were given in suspensions (vehicle: Tween 80 0.1%—NaCl 0.9%), in a 10 ml/kg volume ratio., one hour later of pTH injection.
Two hours after last pTH administration and under Isoflurane anaesthesia, 0.5-0.8 ml of blood was extracted by cardiac punction; the blood sample was centrifuged (6000 rpm; 10 minutes; 4° C.) and 2 serum samples were taken and kept frozen at −70° C. until serum IL6 concentrations were measured (EIA: reference number 555240. BD Bioscience).

[4] = test system: colorectal cancer cells from patients with Kras mutation; experiment: Mutated Kras colon cancer orthotopic animal model; assay type: in vivo, mice; settings: compared with vehicle control, FIG. 4A
Description: Using an animal model based on colorectal cancer cells from patients with Kras mutation, implanted on mice in the colon area (Yao, M. Cyclooxygenase-2 selective inhibition with NS-398 suppresses proliferation and invasiveness and delays liver metastasis in colorectal cancer. Br. J. Cancer, 2004 Feb. 9; 90(3):712-9), the effects of Compound 3 were tested.

Row | SMILES | Inhibition of IL4r (IL4r) | Inhibition of TNFr (TNFr) | Inhibition of IL6r (IL6r) | melting point [°C] | concentration inducing apoptosis in haematological cancer cell lines [1] | IC50 (SW260) [µM] | IC50 (B16-F1) [µM] | IC50 (HCT116) [µM] | IC50 (Malm-3M) [µM] | IC50 (SF268) [µM] | IC50 (NCI-H460) [µM] | IC50 (HepG2) [µM] | IC50 at 72 h [2] [µM] | % Apoptosis PBLs (resting human PBLs; 10^−4 M) [%] | % Apoptosis PBLs (resting human PBLs; 10^−5 M) [%] | effect on PBLs (resting human PBLs; even at 10^−4 M) | IC50 at 72 h [3] [µM] | reduction of blood serum levels of TNF-α in relation to vehicle group (TNF-α) [%] | reduction of blood serum levels of IL6 in relation to vehicle group (IL6) [%] | tumour volume of human colorectal cancer [4]
1 | Cl.FC(F)(F)Oc1cccc(CNCCCCC=C(c2ccccc2)c2ccccc2)c1 [Compound 15, (6,6-diphenyl-hex-5-enyl)-(3-trifluoromethoxybenzyl)amine hydrochloride] | – | – | – | 96.6 to 98.5 | – | – | – | – | – | – | – | – | – | – | – | – | – | – | 64.58 | –
2 | O=c1[nH]cc(F)c(=O)[nH]1 [Compound 5-FU, 5-F uracil, reference compound] | – | – | – | – | – | – | – | – | – | – | – | – | – | – | – | – | – | – | – | not active in the tested experimental conditions

More lines, main results first:

Row | Inhibition of IL4r (IL4r) | Inhibition of TNFr (TNFr) | Inhibition of IL6r (IL6r) | melting point [°C] | SMILES | concentration inducing apoptosis in haematological cancer cell lines [1] | IC50 (SW260) [µM] | IC50 (B16-F1) [µM] | IC50 (HCT116) [µM] | IC50 (Malm-3M) [µM] | IC50 (SF268) [µM] | IC50 (NCI-H460) [µM] | IC50 (HepG2) [µM] | IC50 at 72 h [2] [µM] | % Apoptosis PBLs (resting human PBLs; 10^−4 M) [%] | % Apoptosis PBLs (resting human PBLs; 10^−5 M) [%] | effect on PBLs (resting human PBLs; even at 10^−4 M) | IC50 at 72 h [3] [µM] | reduction of blood serum levels of TNF-α in relation to vehicle group (TNF-α) [%] | reduction of blood serum levels of IL6 in relation to vehicle group (IL6) [%] | tumour volume of human colorectal cancer [4]
3 | Inhibition of IL4r total | Inhibition of TNFr total | Inhibition of IL6r total | 161 to 161.6 | C(CCCNCc1cccs1)=C(c1ccccc1)c1ccccc1.Cl [Compound 6, (5,5-diphenyl-pent-4-enyl)-thiophen-2-ylmethyl-amine hydrochloride] | ~10^−6 M | 13 | 16 | 8.1 | 13 | 29 | 17 | 5 to 50 | 24 | 7.2 | 4.1 | hardly affect PBLs | 27 | – | – | –
4 | Inhibition of IL4r total | Inhibition of TNFr total | Inhibition of IL6r total | 139 to 141.3 | C(CCCNCc1ccco1)=C(c1ccccc1)c1ccccc1.Cl [Compound 8, (5,5-diphenyl-pent-4-enyl)furan-2-ylmethylamine hydrochloride] | – | 5 to 50 | 14 | 5 to 50 | 16 | 5 to 50 | 5 to 50 | 5 to 50 | – | – | – | – | – | 37.7 | – | –
5 | Inhibition of IL4r total | Inhibition of TNFr total | Inhibition of IL6r total | 251 to 253.8 | C(CCCNCc1nc2ccccc2[nH]1)=C(c1ccccc1)c1ccccc1.Cl [Compound 11, (1H-benzoimidazol-2-ylmethyl)-(5,5-diphenyl-pent-4-enyl)amine hydrochloride] | – | – | – | – | – | – | – | – | – | – | – | – | – | 35.42 | – | –
